Results from patent US20240108641A1, “COMPOSITIONS FOR ORAL ADMINISTRATION OF ZOLEDRONIC ACID OR RELATED COMPOUNDS FOR TREATING DISEASE” (ANTECIP BIOVENTURES II LLC, priority 2012, published 2024).

Tests used:
[1] = test system: complex regional pain syndrome (CRPS); test: rat tibia fracture model of CRPS, dosing starting four weeks after fracture; assay type: in vivo
Method: A study was performed to evaluate the efficacy of bisphosphonates such as oral zoledronic acid in inhibiting immune responses and pain behavior in a rat fracture model of CRPS.
The effect of orally administered zoledronic acid was examined in the rat tibia fracture model of complex regional pain syndrome (CRPS). CRPS was induced in the rats by fracturing the right distal tibias of the animals and casting the fractured hindpaws for 4 weeks, as described in Guo T Z et al. (Pain. 2004; 108: 95-107).
Starting four weeks after fracture and casting, animals were orally administered either vehicle (control) or zoledronic acid, a dose of 21 mg/kg on the first day and 3 mg/kg/day daily thereafter, or distilled water for 3 weeks (weeks 4-7 post-fracture). Drug was dissolved in distilled water and administered by gavage. Animals were fasted for 4 hours before and 2 hours after dosing. At the end of the 21-day period, casts were removed, and on the following day, the rats were tested for hindpaw pain, edema, and warmth.

[2] = test system: inflammatory pain (mechanical hyperalgesia); assay type: in vivo, Sprague-Dawley rats
Method: The effect of orally administered zoledronic acid on inflammatory pain was examined using the rat complete Freund's adjuvant (CFA) model. Inflammatory pain was induced by injection of 100% CFA in a 75 μL volume into the left hind paws of Sprague-Dawley® rats on day 0, followed by assessments on days 1-3. Animals were orally administered vehicle (control), zoledronic acid 18 mg/m^2 (or 3 mg/kg), zoledronic acid 120 mg/m^2 (or 20 mg/kg), or zoledronic acid 900 mg/m^2 (or 150 mg/kg) daily on days 1-3. Drug was dissolved in distilled water and prepared fresh daily. Animals were fasted prior to dosing. Under current FDA guidelines for extrapolating starting dosages from animals to humans, dosages expressed in mg/m^2 are considered equivalent between mammalian species. Thus, for example, 18 mg/m^2 in a rat is considered equivalent to 18 mg/m^2 in a human being, while 3 mg/kg in a rat may not be equivalent to 3 mg/kg in a human being.
Values for inflammatory pain (mechanical hyperalgesia) in the vehicle and drug-treated animals were obtained on day 0 prior to CFA injection, and at baseline and post-treatment on days 1-3. Pain was assessed using a digital Randall-Selitto device (dRS; IITC Life Sciences, Woodland Hills, CA). Animals were placed in a restraint sling that suspended the animal, leaving the hind limbs available for testing. Paw compression threshold was measured by applying increasing pressure to the plantar surface of the hind paw with a dome-shaped tip placed between the 3rd and 4th metatarsus. Pressure was applied gradually over approximately 10 seconds. Measurements were taken from the first observed nocifensive behavior of vocalization, struggle or withdrawal. A cut-off value of 300 g was used to prevent injury to the animal.
Reversal of inflammatory pain was calculated according to the formula:
% reversal=(Post-treatment−Post-CFA baseline)/(Pre-CFA baseline−Post-CFA baseline)×100.
The experiment was carried out using 9-10 animals per group.

[3] = test system: arthritis pain (mechanical hyperalgesia); test: rat complete Freund's adjuvant (CFA) model of arthritis pain; assay type: in vivo; details: oral administration; day 14 post CFA
Method: The effect of orally administered zoledronic acid on arthritis pain was examined in the rat complete Freund's adjuvant (CFA) model of arthritis pain. In this model, injection of 100% complete Freund's adjuvant (CFA) in a 75 μL volume into the left hind paws is followed by a 10-14 day period to allow for the development of arthritis pain. Animals were orally administered vehicle (control), zoledronic acid 54 mg/m^2 (or 9 mg/kg), or zoledronic acid 360 mg/m^2 (or 60 mg/kg), divided in three equal daily doses on the first three days post CFA injection. Drug was dissolved in distilled water and prepared fresh daily. Animals were fasted prior to dosing.
Arthritis pain (mechanical hyperalgesia) in the vehicle and drug-treated animals was evaluated on day 14 post CFA injection using a digital Randall-Selitto device (dRS; IITC Life Sciences, Woodland Hills, CA). Animals were placed in a restraint sling that suspended the animal, leaving the hind limbs available for testing. Paw compression threshold was measured by applying increasing pressure to the plantar surface of the hind paw with a dome-shaped tip placed between the 3rd and 4th metatarsus. Pressure was applied gradually over approximately 10 seconds. […]
Reversal of arthritis pain in the ipsilateral (CFA-injected) paw was calculated according to the formula: […]

[4] = phase 1 clinical trial, bioavailability and pharmacokinetics of the oral dosage form versus IV Zometa; assay type: in vivo, human
Method: Dose amounts are based upon the weights of the molar equivalent amounts of the diacid form of zoledronic acid (e.g., the 50 mg oral dose contains about 71 mg of the disodium zoledronate tetrahydrate form). The dosage form had the composition shown in Table 3, and was coated with Opadry White, which as 3-5 wt % of the coated tablet. These dosage forms were free of bioavailability enhancing agents. For convenience, the dosage form described in Table 3 will be described in this Example as “the oral dosage form.”
Each subject received 2 of the following 4 treatments: one unit of the oral dosage form for a 50 mg dose (“the 50 mg oral dose”), two units of the oral dosage form taken together for a 100 mg dose (“the 100 mg oral dose”), or three units of the oral dosage form taken together for a 150 mg dose (“the 150 mg oral dose”), or a 1 mg IV dose of zoledronic acid (Zometa®). Each treatment was separated by a wash-out period of approximately 14 days. Blood samples were collected for 72 hours post-dose to characterize zoledronic acid pharmacokinetics. Blood samples were collected pre-dose and 7 and 14-15 days post-dose to measure the effects of the oral disodium tetrahydrate form of zoledronic acid and IV zoledronic acid on biomarkers of bone resorption.
All study medications which were orally administered were given with approximately 240 mL of water. Subjects remained upright for the first hour following study medication administration. Zoledronic acid IV infusion was at least 15 minutes in duration. All study medication was administered under fasting conditions.
Each treatment was separated by a washout period of approximately 14 days. Blood samples were collected for 72 hours post-dose to characterize zoledronic acid pharmacokinetics. Blood samples were collected pre-dose and 7 and 14-15 days post-dose to measure the effects of the oral dosage form and IV zoledronic acid on serum CTx.

[5] = oral 21 mg/kg first day then 3 mg/kg/day, weeks 4-7 post-fracture

Question: For `O=P(O)(O)C(O)(Cn1ccnc1)P(=O)(O)O` [zoledronic acid], which hindlimb weight bearing [1, 5] is on record?
Answer: over 90 % of normal

Question: What about the “overall effect compared to vehicle treated animals” value [1, 5] of the same compound?
Answer: reversed pain and restored weight bearing

Question: What about the “von Frey pain thresholds for the right (fracture) hindpaw, change as compared to baseline” value [1, 5] of the same compound?
Answer: over 100%

Question: What about the “pain relief, dosing four weeks after fracture versus dosing at the time of injury” value ([1]; oral, FIG. 18) of the same compound?
Answer: significantly greater improvement of pain relief

Question: What about the “paw compression thresholds compared to vehicle” value ([2]; 120 mg/m^2 (20 mg/kg) oral daily, all time points) of the same compound?
Answer: approximately equal or inferior to vehicle

Question: What about the toxicity ([2]; 900 mg/m^2 oral daily days 1-3, euthanization of all animals two days after cessation of dosing) of the same compound?
Answer: significant toxicity

Question: What about the “inflammatory pain thresholds compared to vehicle” value ([2]; oral administration) of the same compound?
Answer: significantly improved

Question: And the “arthritis pain thresholds compared to vehicle” value [3]?
Answer: significantly improved

Question: What about the “Sustained Plasma Factor” value ([4]; 1 mg IV) of the same compound?
Answer: 4.6

Question: And the “Sustained Plasma Factor” value ([4]; 50 mg oral dose)?
Answer: 13.5

Question: And the “Sustained Plasma Factor Ratio (oral/IV)” value ([4]; 50 mg oral dose versus 1 mg IV)?
Answer: 2.9

Question: And the “Sustained Plasma Factor” value ([4]; 100 mg oral dose)?
Answer: 11.7

Question: And the “Sustained Plasma Factor Ratio (oral/IV)” value ([4]; 100 mg oral dose versus 1 mg IV)?
Answer: 2.5

Question: And the “Sustained Plasma Factor” value ([4]; 150 mg oral dose)?
Answer: 15.1

Question: What about the “Sustained Plasma Factor Ratio (oral/IV)” value ([4]; 150 mg oral dose versus 1 mg IV) of the same compound?
Answer: 3.3
